Measurements published in patent US20040009464A1, “Methods for identifying compounds for inhibition of neoplastic lesions, and pharmacetical compositions containing such compounds” (priority 1998, published 2004).

Key:
[1] = Safety evaluation in exisulind clinical trials; type: in vivo
Method: In these exisulind trials and several others involving the drug in other indications, safety was evaluated by monitoring adverse events (AEs), clinical laboratory tests (hematology, serum chemistry, and urinalysis), vital signs (blood pressure, pulse rate, respiratory rate, temperature, and weight), physical examination, and upper endoscopy.

[2] = tested on: PKG in HCT116 colon cancer cells; test: PKG activity assay on lysates of drug-treated HCT116 cells; type: cell-based
Source text: To test the effect of cGMP-specific PDE inhibition on neoplasia containing the β-catenin mutation, HCT116 colon cancer celis were employed. HCT116 is known to contain the β-catenin mutation, but is known not to contain the APC mutation.
The same procedure is used to grow the HCT116 cells as is used in the SW480 procedure described above. In this experiment, only exisulind and controls were used.

[3] = tested on: PKG in SW480 colon cancer cells; test: PKG activity assay on lysates of drug-treated SW480 cells; type: cell-based, human; conditions: SW480, 48 hrs, with and without added cGMP
Source text: That sequence is known and described in the literature below. […] One way to bind the PDE5 sequences to a solid phase is to express those sequences as a fusion protein of the PDE5 sequence and one member of an amino acid binding pair, and chemically link the other member of that amino acid binding pair to a solid phase (e.g., beads). One binding pair that can be used is glutathione S-transferase (“GST”) and glutathione (“GSH”), with the GST being expressed as a fusion protein with the PDE5 sequence described above, and the GSH bound covalently to the solid phase. In this fashion, the PDE5 sequence/GST fusion protein can be bound to a solid phase simply by passing a solution containing the fusion protein over the solid phase, as described below.
To assay a liquid sample believed to contain PKG using the PDE5-bound solid phase described above, the sample and the solid phase are mixed with phosphorylation buffer containing ^32P-γ-ATP. The solution is incubated for 30 minutes at 30° C. to allow for phosphorylation of the PDE5 sequence by PKG to occur, if PKG is present. […]
For each control or drug cell lysate sample to be evaluated, the reaction is started by adding phosphorylation buffer containing 10 μCi ^32P-γ-ATP solution (200 μM ATP, 4.5 mM MgCl; 5 mM KH2PO4; 5 mM K2HPO4;) to each mixture. […]

[4] = target: T1, cGMP binding sites of GST-cGB-PDE5 fusion protein (Homo sapiens, UniProt O76074); test: cGMP binding assay with GST-cGB-PDE5 fusion protein; conditions: FIG. 24
T1 construct: made in house; host or cells: E. coli BL21 (DE3)

polyps in APC patients = test: Clinical prevention trial in patients with adenomatous polyposis coli (APC); type: in vivo, human
Source text: The first clinical trial involved patients with APC. using exisulind. In that study, each patient had already had his/her colon removed, except for a small section of colon adjacent the rectum (where the small intestine was attached) to preserve rectal function. However, such a patient commonly forms polyps in the small remaining colonic section, which polyps require periodic removal (e.g., by electrocautery).
That trial where exisulind was selected was a prevention trial designed to evaluate the anti-neoplastic characteristics of the drug by comparing the cumulative number of new polyps formed over twelve months by the drug and placebo groups. Eligible patients were those who form between 9 and 44 polyps per year. Patients were fully ablated (had all polyps removed) at the start of the study, at the end of 6 months and at the end of 12 months. The study enrolled thirty-four eligible patients. […] Based on the median number of polyps produced in the first six months of the study, patients treated with exisulind developed approximately one-third the number of polyps as patients treated with placebo (median values 9 polyps/year and 26 polyps/year, respectively; p=0.013). […]

T1 sequence (O76074 46-539 limits assumed): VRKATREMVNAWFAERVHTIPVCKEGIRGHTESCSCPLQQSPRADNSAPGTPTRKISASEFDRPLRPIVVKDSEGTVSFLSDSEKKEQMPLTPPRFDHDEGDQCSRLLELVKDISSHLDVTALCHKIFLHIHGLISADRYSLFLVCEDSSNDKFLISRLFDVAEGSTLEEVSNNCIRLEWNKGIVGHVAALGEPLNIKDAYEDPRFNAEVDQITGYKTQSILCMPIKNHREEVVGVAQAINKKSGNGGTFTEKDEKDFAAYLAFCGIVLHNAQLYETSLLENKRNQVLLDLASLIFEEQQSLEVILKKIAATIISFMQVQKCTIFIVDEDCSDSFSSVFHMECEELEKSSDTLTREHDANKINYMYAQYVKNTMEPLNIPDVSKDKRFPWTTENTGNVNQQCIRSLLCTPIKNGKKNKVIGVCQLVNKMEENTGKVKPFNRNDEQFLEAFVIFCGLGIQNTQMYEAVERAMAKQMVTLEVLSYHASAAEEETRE

For `CC1=C(CC(=O)O)c2cc(F)ccc2/C1=C\c1ccc(S(C)(=O)=O)cc1` [Exisulind, 5-fluoro-2-methyl-1-(p-methylsulfonylbenzylidene)-3-indenylacetic acid], the “clinical safety” value ([1]; human, in vivo) was “No outstanding safety issues have been demonstrated”, the “dose-limiting adverse events” value ([1]; human, in vivo) was “elevations in liver function tests” and the “apoptosis rates in polyp and normal colonic tissues” value ([1]; paired biopsies in APC patients) was “increased apoptosis rates in polyp, but not normal colonic tissues”. For the same compound, the “PKG activity relative to control” value [2] was “PKG that was phosphorylated to a greater extent than the corresponding controls”, the “PKG activity relative to control” value [3] was “causes PKG activity to increase in a dose-dependent manner” and the “competition with cGMP (2 μM) in binding of GST-cGB-PDE5” value [4] was “None of the PDE5 inhibitors showed any competition”. For the same compound, the “median number of polyps, entire 12 months” value (polyps in APC patients; entire 12 months of the study) was 18 polyps/year and the “median number of polyps, first six months” value (polyps in APC patients; first six months of the study) was 9 polyps/year.
